In US20210308089A1, “METHODS OF TREATING AND/OR PREVENTING VIRAL INFECTIONS AND/OR DISEASES CAUSED BY VIRUSES IN A SUBJECT IN NEED THEREOF” (priority 2020, published 2021):

Test system: patients of the REDUCE-IT and earlier EPA placebo-controlled trials
Test: Example 3: adverse events by risk ratio, icosapent ethyl vs placebo (candidate categories; infectious disease terms of interest)
Conditions: for ARR / NNT / Risk Ratio (95% CI) / AR: Cough (AE table) / ARR: Cough (AE table) / NNT: Cough (AE table) / Risk Ratio (95% CI): Cough (AE table): R-I
[1] = Cognitive Decline: Attention disorders and disturbances
[2] = Cognitive Decline: Cognitive and attention disorders and disturbances
[3] = Depression: Depressed mood disorders and disturbances
[4] = Depression: Depressive disorders
[5] = Depression: Depressive disorders - Depression
[6] = Depression: Depressive disorders - Major depression
[7] = Depression: Depressive disorders - Persistent depressive disorder
[8] = Depression: Depressive disorders- Agitated depression
[9] = Depression: Mood alterations - Depressed mood
[10] = Depression: Mood alterations - Depressive symptom
[11] = Depression: Mood alterations with depressive symptoms
[12] = Glomerulonephritis and Nephrotic Syndrome
[13] = Limb Fractures and Dislocations
[14] = NASH+Hepatic Steatosis for NFS >0.675
[15] = Psychosis: Psychotic disorder NEC
[16] = Squamous Cell Carcinoma of Head and Neck
[17] = Systemic Inflammatory Response Syndrome
[18] = first of three Cough lines of Table 46
[19] = second of three Cough lines of Table 46

## CC/C=C\C/C=C\C/C=C\C/C=C\C/C=C\CCCC(=O)OCC [icosapent ethyl, eicosapentaenoic acid ethyl ester]
Bipolar Disease
  ARR: −0.0%
  NNT: 2045
  Risk Ratio (95% CI): 0.333 (0.035 to 3.204) 4
Blood CPK increased
  ARR: −0.6%
  NNT: 164
  Risk Ratio (95% CI): 0.684 (0.485 to 0.964) 2
Bone Fractures
  ARR: 0.0%
  NNT: −4088
  Risk Ratio (95% CI): 2.000 (0.181 to 22.053) −3
Breast Cancer
  ARR: 0.0%
  NNT: −2389144
  Risk Ratio (95% CI): 1.000 (0.351 to 2.849) −1
CKD
  ARR: 0.1%
  NNT: −680
  Risk Ratio (95% CI): 1.123 (0.766 to 1.646) −1
COPD
  ARR: 0.2%
  NNT: −453
  Risk Ratio (95% CI): 1.084 (0.837 to 1.405) −1
Chrohn's Disease
  ARR: −0.0%
  NNT: 2045
  Risk Ratio (95% CI): 0.333 (0.035 to 3.204) 4
Chronic Lymphycytic Leukaemia
  ARR: 0.1%
  NNT: −1363
Chronic Lymphycytic Leukaemia, case counts given
  Risk Ratio (95% CI): [3 drug vs 0 PBO]
[1]
  ARR: 0.0%
  NNT: −8362005
  Risk Ratio (95% CI): 1.000 (0.141 to 7.097) −1
[2]
  ARR: 0.0%
  NNT: −8362005
  Risk Ratio (95% CI): 1.000 (0.141 to 7.097) −1
Cognitive Decline: Cognitive disturbances
  Risk Ratio (95% CI): [No cases in study]
Colon Cancer
  ARR: 0.1%
  NNT: −1022
  Risk Ratio (95% CI): 2.000 (0.603 to 6.638) −3
Cough
  ARR: −0.2%
  NNT: 455
  Risk Ratio (95% CI): 0.526 (0.245 to 1.131) 3
Cystic Fibrosis
  Risk Ratio (95% CI): [No cases in study]
Decreased Appetite
  ARR: 0.5%
  NNT: −215
  Risk Ratio (95% CI): 2.584 (1.329 to 5.024) −4
Deep Venous Thromboembolism
  ARR: −0.1%
  NNT: 1364
  Risk Ratio (95% CI): 0.625 (0.205 to 1.909) 2
[3]
  ARR: 0.3%
  NNT: −340
  Risk Ratio (95% CI): 1.106 (0.861 to 1.422) −1
[4]
  ARR: 0.3%
  NNT: −314
  Risk Ratio (95% CI): 1.123 (0.867 to 1.454) −1
[5]
  ARR: 0.2%
  NNT: −408
  Risk Ratio (95% CI): 1.097 (0.843 to 1.428) −1
[6]
  ARR: 0.0%
  NNT: −2044
  Risk Ratio (95% CI): 3.001 (0.312 to 28.836) −4
[7]
  ARR: 0.0%
  NNT: −4088
  Risk Ratio (95% CI): 2.000 (0.181 to 22.053) −3
[8]
  ARR: 0.0%
  NNT: −2044
Depression: Depressive disorders- Agitated depression, case counts given
  Risk Ratio (95% CI): [2 drug vs 0 PBO]
[9]
  ARR: 0.0%
  NNT: −3344802
  Risk Ratio (95% CI): 1.000 (0.290 to 3.452) −1
[10]
  ARR: −0.0%
  NNT: 4091
  Risk Ratio (95% CI): 0.500 (0.045 to 5.513) 3
[11]
  ARR: −0.0%
  NNT: 4096
  Risk Ratio (95% CI): 0.857 (0.288 to 2.549) 1
Dermatitis psoriasiform
  ARR: 0.0%
  NNT: −4089
Dermatitis psoriasiform, case counts given
  Risk Ratio (95% CI): [1 drug vs 0 PBO]
Dermatitis, allergic
  ARR: −0.2%
  NNT: 454
  Risk Ratio (95% CI): 0.250 (0.071 to 0.885) 4
Diabetic Nephropathy
  ARR: −0.0%
  NNT: 4100
  Risk Ratio (95% CI): 0.909 (0.387 to 2.139) 1
Dry Eye
  ARR: 0.1%
  NNT: −1020
  Risk Ratio (95% CI): 1.129 (0.698 to 1.828) −1
ESRD
  ARR: −0.0%
  NNT: 4092
  Risk Ratio (95% CI): 0.667 (0.111 to 3.989) 2
Embolism and Thrombosis
  ARR: 0.1%
  NNT: −1358
  Risk Ratio (95% CI): 1.064 (0.716 to 1.581) −1
Epilepsy
  ARR: 0.0%
  NNT: −1.67e+07
  Risk Ratio (95% CI): 1.000 (0.063 to 15.986)−1
Erectile dysfunction
  ARR: −0.4%
  NNT: 232
  Risk Ratio (95% CI): 0.784 (0.535 to 1.151) 2
Gastric Cancer
  ARR: 0.0%
  NNT: −4088
  Risk Ratio (95% CI): 2.000 (0.181 to 22.053) −3
Gastroesophageal reflux
  ARR: −0.1%
  NNT: 682
  Risk Ratio (95% CI): 0.333 (0.090 to 1.231) 4
[12]
  ARR: −0.1%
  NNT: 1023
Glomerulonephritis and Nephrotic Syndrome, case counts given
  Risk Ratio (95% CI): [0 drug vs 4 PBO]
Guttate psoriasis
  ARR: 0.0%
  NNT: −4089
Guttate psoriasis, case counts given
  Risk Ratio (95% CI): [1 drug vs 0 PBO]
Hepatitis C
  ARR: 0.0%
  NNT: −4089
Hepatitis C, case counts given
  Risk Ratio (95% CI): [1 drug vs 0 PBO]
IgA Nephropathy
  Risk Ratio (95% CI): [No cases in study]
Large intestine polyps
  ARR: −0.2%
  NNT: 511
  Risk Ratio (95% CI): 0.385 (0.137 to 1.078) 4
Leukaemia
  ARR: 0.0%
  NNT: −1.67e+07
  Risk Ratio (95% CI): 1.000 (0.063 to 15.986) −1
[13]
  ARR: −0.1%
  NNT: 1024
  Risk Ratio (95% CI): 0.883 (0.541 to 1.439) 1
Liver Cancer
  ARR: 0.0%
  NNT: −4088
  Risk Ratio (95% CI): 2.000 (0.181 to 22.053) −3
Lung Cancer
  ARR: −0.1%
  NNT: 1023
  Risk Ratio (95% CI): 0.637 (0.247 to 1.640) 2
Lupus
  ARR: −0.0%
  NNT: 4090
Lupus, case counts given
  Risk Ratio (95% CI): [0 drug vs 1 PBO]
Macular Degeneration
  ARR: 0.1%
  NNT: −1361
  Risk Ratio (95% CI): 1.188 (0.612 to 2.306) −1
Male Infertility
  Risk Ratio (95% CI): [No cases in study]
Migraine
  ARR: 0.2%
  NNT: −584
  Risk Ratio (95% CI): 2.751 (0.877 to 8.631) −4
Mucositis
  Risk Ratio (95% CI): [No cases in study]
Multiple Sclerosis
  ARR: −0.0%
  NNT: 4090
Multiple Sclerosis, case counts given
  Risk Ratio (95% CI): [0 drug vs 1 PBO]
Muscle spasms
  ARR: −1.1%
  NNT: 95
  Risk Ratio (95% CI): 0.579 (0.421 to 0.795) 3
NASH
  ARR: −0.1%
  NNT: 818
  Risk Ratio (95% CI): 0.167 (0.020 to 1.384) 5
NASH for b/l NFS >0.675
  ARR: −0.4%
  NNT: 273
  Risk Ratio (95% CI): 0.252 (0.028 to 2.251) 4
[14]
  ARR: −0.5%
  NNT: 209
  Risk Ratio (95% CI): 0.740 (0.342 to 1.601) 2
Nephrolithiasis
  ARR: 0.1%
  NNT: −1017
  Risk Ratio (95% CI): 1.050 (0.777 to 1.419) −1
Nephropathies
  ARR: −0.2%
  NNT: 455
  Risk Ratio (95% CI): 0.679 (0.380 to 1.213)2
Nephrotic Syndrome
  ARR: −0.0%
  NNT: 4090
Nephrotic Syndrome, case counts given
  Risk Ratio (95% CI): [0 drug vs 1 PBO]
PMS/Dysmenorrhea
  Risk Ratio (95% CI): [No cases in study]
PTSD
  ARR: −0.0%
  NNT: 4092
  Risk Ratio (95% CI): 0.667 (0.111 to 3.989) 2
Pancreatic Cancer
  ARR: 0.1%
  NNT: −1022
  Risk Ratio (95% CI): 5.001 (0.585 to 42.789) −5
Periodontitis
  ARR: 0.0%
  NNT: −2044
Polycystic Ovarian Syndrome
  Risk Ratio (95% CI): [No cases in study]
Psoriasis
  ARR: 0.3%
  NNT: −341
  Risk Ratio (95% CI): 1.750 (0.949 to 3.230) −3
Psoriatic Conditions
  ARR: 0.3%
  NNT: −292
  Risk Ratio (95% CI): 1.875 (1.024 to 3.435) −3
[15]
  ARR: −0.0%
  NNT: 4091
  Risk Ratio (95% CI): 0.500 (0.045 to 5.513) 3
Renal Transplant
  Risk Ratio (95% CI): [No cases in study]
Rheumatoid Arthritis
  ARR: −0.1%
  NNT: 1363
Rheumatoid Arthritis, case counts given
  Risk Ratio (95% CI): [0 drug vs 3 PBO]
Schizophrenia NEC
  ARR: −0.0%
  NNT: 4091
  Risk Ratio (95% CI): 0.500 (0.045 to 5.513) 3
Sepsis
  ARR: −0.1%
  NNT: 682
  Risk Ratio (95% CI): 0.807 (0.477 to 1.364) 1
Sickle Cell Disease
  Risk Ratio (95% CI): [No cases in study]
[16]
  ARR: −0.0%
  NNT: 4090
Squamous Cell Carcinoma of Head and Neck, case counts given
  Risk Ratio (95% CI): [0 drug vs 1 PBO]
[17]
  ARR: −0.1%
  NNT: 682
  Risk Ratio (95% CI): 0.143 (0.018 to 1.161) 5
Ulcerative Colitis
  ARR: −0.0%
  NNT: 4090
Ulcerative Colitis, case counts given
  Risk Ratio (95% CI): [0 drug vs 1 PBO]
Wheezing
  ARR: −0.3%
  NNT: 315
  Risk Ratio (95% CI): 0.639 (0.379 to 1.076) 2
[18]
  AR: Cough (AE table): 1,5%
  ARR: Cough (AE table): 0.9%
  NNT: Cough (AE table): −112
  Risk Ratio (95% CI): Cough (AE table): 1.928 (0.692 to 5.373) −3
[19]
  AR: Cough (AE table): 0.4%
  ARR: Cough (AE table): −0.2%
  NNT: Cough (AE table): 455
  Risk Ratio (95% CI): Cough (AE table): 0.526 (0.245 to 1.131) 3
Vs placebo, p value 0.06
  Severe SIRS: RR: approximately 0.17
Vs placebo, p-value 0.0338
  Systemic inflammatory response: risk ratio (RR): 0.143
